According to PubChem BioAssay (NCI):
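Cells were grown in 96-well plates and exposed to each compound for 48 hours at five concentrations; endpoints were interpolated linearly between bracketing concentrations, or set to the highest concentration if not reached. GI50 = concentration required for 50% inhibition of growth. TGI marks complete inhibition of growth.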

What was measured:
Assay in all cases: growth of human tumour cells (NCI), 48 h
[1] = tested on: HCT-116 colon
[2] = tested on: TK-10 renal
[3] = tested on: SF-539 CNS
[4] = tested on: HT29 colon
[5] = tested on: M14 melanoma
[6] = tested on: CAKI-1 renal
[7] = tested on: T-47D breast
[8] = tested on: LOX IMVI melanoma
[9] = tested on: DU-145 prostate
[10] = tested on: HS 578T breast
[11] = tested on: SK-MEL-5 melanoma
[12] = tested on: SF-268 CNS
[13] = tested on: SK-OV-3 ovarian
[14] = tested on: PC-3 prostate
[15] = tested on: MDA-MB-435
[16] = tested on: SN12C renal
[17] = tested on: MALME-3M melanoma
[18] = tested on: A498 renal
[19] = tested on: OVCAR-3 ovarian
[20] = tested on: HCT-15 colon
[21] = tested on: OVCAR-8 ovarian
[22] = tested on: NCI-H460 lung
[23] = tested on: EKVX NSCLC
[24] = tested on: COLO 205 colon
[25] = tested on: RXF 393 renal
[26] = tested on: BT-549 breast
[27] = tested on: HCC-2998 colon
[28] = tested on: NCI-H226 lung
[29] = tested on: HOP-92 NSCLC
[30] = tested on: CCRF-CEM leukemia
[31] = tested on: IGROV1 ovarian
[32] = tested on: HOP-62 NSCLC
[33] = tested on: MOLT-4 leukemia
[34] = tested on: 786-0 renal
[35] = tested on: NCI-H23 lung
[36] = tested on: SK-MEL-2 melanoma
[37] = tested on: SW-620 colon
[38] = tested on: UACC-62 melanoma
[39] = tested on: MDA-MB-231 breast
[40] = tested on: U251 CNS
[41] = tested on: OVCAR-4 ovarian
[42] = tested on: SNB-75 CNS
[43] = tested on: NCI/ADR-RES ovarian
[44] = tested on: MCF7 breast
[45] = tested on: HL-60(TB) leukemia
[46] = tested on: K-562 leukemia
[47] = tested on: SR leukemia
[48] = tested on: RPMI-8226 leukemia
[49] = tested on: SNB-19 CNS
[50] = tested on: SK-MEL-28 melanoma
[51] = tested on: UACC-257 melanoma
[52] = tested on: KM12 colon
[53] = tested on: UO-31 renal
[54] = tested on: SF-295 CNS
[55] = tested on: ACHN renal
[56] = tested on: A549 NSCLC
[57] = tested on: OVCAR-5 ovarian

## O=C(O)c1ccc2c(c1)CCCC(c1ccc(Cl)cc1Cl)=C2c1ccc(O[C@H]2CCN(CCCF)C2)cc1
[1]
  GI50: 7.98 µM
  TGI: 21.7 µM
[2]
  GI50: 13.4 µM
  TGI: 27.6 µM
[3]
  GI50: 14.1 µM
  TGI: 27.5 µM
[4]
  GI50: 11.9 µM
  TGI: 28.1 µM
[5]
  GI50: 13.2 µM
  TGI: 28.7 µM
[6]
  GI50: 11.5 µM
  TGI: 24 µM
[7]
  GI50: < 10 nM
  TGI: 22.5 µM
[8]
  GI50: 11 µM
  TGI: 26.1 µM
[9]
  GI50: 14.2 µM
  TGI: 27.5 µM
[10]
  GI50: 12.9 µM
  TGI: 31.8 µM
[11]
  GI50: 10.8 µM
  TGI: 23.2 µM
[12]
  GI50: 12.1 µM
  TGI: 28.5 µM
[13]
  GI50: 16.7 µM
  TGI: 30.8 µM
[14]
  GI50: 10.4 µM
  TGI: 24.2 µM
[15]
  GI50: 10.5 µM
  TGI: 24.3 µM
[16]
  GI50: 15.2 µM
  TGI: 31 µM
[17]
  GI50: 14.7 µM
  TGI: 35.4 µM
[18]
  GI50: 11.5 µM
  TGI: 24.6 µM
[19]
  GI50: 12.1 µM
  TGI: 24.7 µM
[20]
  GI50: 6.38 µM
  TGI: 20.1 µM
[21]
  GI50: 13.5 µM
  TGI: 33.7 µM
[22]
  GI50: 9.27 µM
  TGI: 23.8 µM
[23]
  GI50: 10.7 µM
  TGI: 25.3 µM
[24]
  GI50: 14.9 µM
  TGI: 33.7 µM
[25]
  GI50: 3.38 µM
  TGI: 17 µM
[26]
  GI50: 10 µM
  TGI: 22.9 µM
[27]
  GI50: 13.6 µM
  TGI: 27.9 µM
[28]
  GI50: 10.4 µM
  TGI: 38.8 µM
[29]
  GI50: 11.3 µM
  TGI: 25.1 µM
[30]
  GI50: 10.8 µM
  TGI: 27.6 µM
[31]
  GI50: 13.8 µM
  TGI: 35.6 µM
[32]
  GI50: 15 µM
  TGI: 33.6 µM
[33]
  GI50: 8.62 µM
  TGI: 24.2 µM
[34]
  GI50: 12.9 µM
  TGI: 28 µM
[35]
  GI50: 13.2 µM
  TGI: 29.3 µM
[36]
  GI50: 14.3 µM
  TGI: 30.6 µM
[37]
  GI50: 14.3 µM
  TGI: 28.9 µM
[38]
  GI50: 12.7 µM
  TGI: 26.3 µM
[39]
  GI50: 16.4 µM
  TGI: 31.6 µM
[40]
  GI50: 10.1 µM
  TGI: 25.2 µM
[41]
  GI50: 12 µM
  TGI: 30 µM
[42]
  GI50: 12.1 µM
  TGI: 25.3 µM
[43]
  GI50: 13 µM
  TGI: 27.4 µM
[44]
  GI50: < 10 nM
  TGI: 15.9 µM
[45]
  GI50: 7.41 µM
  TGI: 22.7 µM
[46]
  GI50: 8.05 µM
  TGI: 23.1 µM
[47]
  GI50: 4.87 µM
  TGI: 20.7 µM
[48]
  GI50: 6.99 µM
  TGI: 27.5 µM
[49]
  GI50: 12 µM
  TGI: 26.4 µM
[50]
  GI50: 11.5 µM
  TGI: 25.1 µM
[51]
  GI50: 14.1 µM
  TGI: 30 µM
[52]
  GI50: 7.29 µM
  TGI: 20.3 µM
[53]
  GI50: 9.76 µM
  TGI: 25.6 µM
[54]
  GI50: 7.86 µM
  TGI: 20.5 µM
[55]
  GI50: 11.7 µM
  TGI: 24.3 µM
[56]
  GI50: 6.7 µM
  TGI: 24.1 µM
[57]
  GI50: 17.4 µM
  TGI: 32.1 µM
